Source: PubChem BioAssay AID1648 (Sanford-Burnham Center for Chemical Genomics, 2009)
Activity calls are given as the source filed them. The rule behind the calls is not given here.

Target: Serine/threonine-protein kinase mTOR (Homo sapiens) (UniProt P42345)
Assay: binders of mTOR FRB domain, biophysical, NMR (AID 1648)
Conditions: NMR binding to FRB domain, chemical shift

Chain of Serine/threonine-protein kinase mTOR (Homo sapiens) (P42345 2015-2114): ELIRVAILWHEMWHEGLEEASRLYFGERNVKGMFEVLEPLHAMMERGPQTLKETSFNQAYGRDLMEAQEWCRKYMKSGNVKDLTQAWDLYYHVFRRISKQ

`CC(=O)O[C@@H]1CC2C(C)(C)[C@H](O)C=C[C@]2(C)C2CC[C@]3(C)C(=CC(=O)O[C@H]3c3ccoc3)[C@@]21C` (stereo partly specified) was tested, and the Kd was > 4 mM (inactive).

In the case of `Cc1ccc(CCNc2ccccc2)c[n+]1[O-]`, the Kd is reported as > 4 mM (inactive).

`Cc1cccc(NC(=O)c2ccc(=O)[nH]n2)c1` was tested, and the Kd was > 4 mM (inactive).

With `N/N=C1\CCCc2c1no[n+]2[O-]` the Kd was > 4 mM (inactive).

`Cn1ncc(C(=O)O)c1-c1ccccc1` was tested, and the Kd was > 4 mM (inactive).

`Nc1cccc2nsnc12` was tested, and the Kd was > 4 mM (inactive).

In the case of `CCSc1nc2ccccc2n1CC(N)=O`, the Kd is reported as > 4 mM (inactive).

`CC(=O)N(c1ccccc1)C1C=CS(=O)(=O)C1` (stereo unspecified) was tested, and the Kd was > 4 mM (inactive).

For `NC(=O)C1CCN(C(=S)c2ccccc2)CC1`, the Kd was > 4 mM (inactive).

`CCSc1nnc(-c2ccccc2N)c(=O)[nH]1` was tested, and the Kd was > 4 mM (inactive).

`CC(=O)Nc1ccc2c(c1)CCCC2=O` was tested, and the Kd was > 4 mM (inactive).

With `NCC(O)c1ccc(O)cc1` (stereo unspecified) the Kd was > 4 mM (inactive).

`CN1CCN(c2ccc(C(=O)O)cc2)CC1` was tested, and the Kd was > 4 mM (inactive).

`Cc1noc(-c2ccccc2)c1C(=O)O` was tested, and the Kd was > 4 mM (inactive).

In the case of `CNC(=O)c1cc2cccc(OC)c2oc1=O`, the Kd is reported as > 4 mM (inactive).

In the case of `Cc1ccc(C)n1CCN1CCNCC1`, the Kd is reported as > 4 mM (inactive).

With `CCn1cnc2scc(-c3ccccc3)c2c1=O` the Kd was > 4 mM (inactive).

`CCOc1cccc(C(=O)c2ccc(O)c(O)c2O)c1` was tested, and the Kd was > 4 mM (inactive).

`COc1cc(O)c2c(=O)c(O)c(-c3ccc(O)c(O)c3)oc2c1` was tested, and the Kd was > 4 mM (inactive).

`COc1cc([C@@H]2c3cc4c(c(O)c3C[C@H]3COC(=O)[C@@H]32)OCO4)cc(OC)c1OC` was tested, and the Kd was > 4 mM (inactive).

`Nc1csc(C(=O)O)c1` was tested, and the Kd was > 4 mM (inactive).

`O=C1CCCC(=O)N1c1ccc(O)cc1` was tested, and the Kd was > 4 mM (inactive).

`Cc1ccc(-c2nnn(CC(=O)O)n2)cc1` was tested, and the Kd was > 4 mM (inactive).

`O=C1CSC(=Nc2ccccc2[N+](=O)[O-])N1` was tested, and the Kd was > 4 mM (inactive).

With `Cc1nc(-c2ccc(C(=O)N3CCOCC3)cc2)cs1` the Kd was > 4 mM (inactive).

For `C=C1C2=CC(=O)O[C@@H](c3ccoc3)[C@]2(C)CCC1[C@@]1(C)C=CC(=O)C(C)(C)[C@@H]1CC(=O)OC` (stereo partly specified), the Kd was > 4 mM (inactive).

In the case of `Cc1ccc(-c2cc(C(=O)N3CCCC3)no2)cc1`, the Kd is reported as > 4 mM (inactive).

For `CC(C)(C)NC(=O)N1CCC(C(N)=O)CC1`, the Kd was > 4 mM (inactive).

For `O=C(O)CCC1NCC2CC1CN1CCCCC21` (stereo unspecified), the Kd was > 4 mM (inactive).

For `O=C(c1cnsn1)N1CCN(c2ccccn2)CC1`, the Kd was > 4 mM (inactive).

In the case of `NN1C(=O)CSC1=Nc1ccccc1`, the Kd is reported as > 4 mM (inactive).

`NS(=O)(=O)c1ccc(NC(=O)C(F)(F)F)cc1` was tested, and the Kd was > 4 mM (inactive).

In the case of `O=c1nc(NCc2ccco2)sc2ncccc12`, the Kd is reported as > 4 mM (inactive).

`O=C(CC1NC(=O)NC1=O)Nc1ccccc1` (stereo unspecified) was tested, and the Kd was > 4 mM (inactive).

With `N#Cc1cc2ccccc2nc1N` the Kd was > 4 mM (inactive).

`CSc1nc(C)c(Oc2ccccc2)c(=O)n1C` was tested, and the Kd was > 4 mM (inactive).

For `Cc1ccc(S(=O)(=O)/N=C2\NC(=O)CS2)cc1`, the Kd was > 4 mM (inactive).

For `Nc1nnc(SCc2ccc3c(c2)OCO3)s1`, the Kd was > 4 mM (inactive).

For `CC(C)=CCOc1c2occc2cc2ccc(=O)oc12`, the Kd was > 4 mM (inactive).

In the case of `O=C(Nc1ccccc1)N1CCOCC1`, the Kd is reported as > 4 mM (inactive).

In the case of `O=C(CSc1ncccn1)Nc1nccs1`, the Kd is reported as > 4 mM (inactive).

`Clc1ccc(-c2nnc3ccccn23)cc1` was tested, and the Kd was > 4 mM (inactive).

`CC(=O)NC1C(=O)Nc2c(C)cc(C)cc21` (stereo unspecified) was tested, and the Kd was > 4 mM (inactive).

For `CCn1nnnc1Oc1ccc(Cl)cc1`, the Kd was > 4 mM (inactive).

For `CC(C)CC(=O)Nc1c[nH]c(=O)[nH]c1=O`, the Kd was > 4 mM (inactive).

`CCC(=O)NC(=S)Nc1ccc(N2CCOCC2)cc1` was tested, and the Kd was > 4 mM (inactive).

`Cc1nccn1CCC(=O)O` was tested, and the Kd was > 4 mM (inactive).

In the case of `COc1ccc2c(c1)O[C@H]1c3ccc(OC)cc3OC[C@@H]21`, the Kd is reported as > 4 mM (inactive).

For `C=C1CCC(C2CC(=O)OC2=O)C(=O)CCC2C1CC2(C)C` (stereo unspecified), the Kd was > 4 mM (inactive).

With `S=c1[nH]nc(-c2cccnc2)n1Cc1ccccc1` the Kd was > 4 mM (inactive).

`CS(=O)(=O)c1cccc(C(=O)Nc2nccs2)c1` was tested, and the Kd was > 4 mM (inactive).

In the case of `CN(C)CCCN1CNC(=S)NC1`, the Kd is reported as > 4 mM (inactive).

With `O=C(O)CNCC(O)Cn1c2ccccc2c2ccccc21` (stereo unspecified) the Kd was > 4 mM (inactive).

With `C=CC1=C(C)/C(=C/c2[nH]c(Cc3[nH]c(/C=C4\NC(=O)C(C)=C4C=C)c(C)c3CCC(=O)O)c(CCC(=O)O)c2C)NC1=O` the Kd was > 4 mM (inactive).

In the case of `COc1ccc(-c2ccc(=O)n(CC(N)=O)n2)cc1`, the Kd is reported as > 4 mM (inactive).

For `NC(=O)c1ccc(NC(=O)C2CC2)cc1`, the Kd was > 4 mM (inactive).

For `Nc1ccccc1C(=O)N1CCOCC1`, the Kd was > 4 mM (inactive).

In the case of `Cc1cc(NC(=O)c2cc(C)on2)no1`, the Kd is reported as > 4 mM (inactive).

In the case of `O=C(Cc1c(F)cccc1Cl)Nc1ccon1`, the Kd is reported as > 4 mM (inactive).

In the case of `NCc1c[nH]c2ccccc12`, the Kd is reported as > 4 mM (inactive).

`CCn1c2ccccc2c2nn(C)c(=N)nc21` was tested, and the Kd was > 4 mM (inactive).

For `Nc1ccc(S(=O)(=O)Nc2ccc(F)cc2F)cc1`, the Kd was > 4 mM (inactive).

`COC(=O)CCSCC(=O)Nc1nccs1` was tested, and the Kd was > 4 mM (inactive).

`COc1ccc(/C=C/c2cc(O)cc(O)c2)cc1` was tested, and the Kd was > 4 mM (inactive).

In the case of `COc1cc2nc[nH]c(=O)c2cc1OC`, the Kd is reported as > 4 mM (inactive).

`COC(=O)CSc1nc(N)cc(=O)[nH]1` was tested, and the Kd was > 4 mM (inactive).

For `COc1ccc(C[C@H]2NC[C@H](O)[C@H]2OC(C)=O)cc1`, the Kd was > 4 mM (inactive).

In the case of `C=CCCCCCCCCCCCC(O)CC(O)COC(C)=O` (stereo unspecified) (tested in a mixture with another compound), the Kd is reported as > 4 mM (inactive).

For `CCOC(=O)Cc1nc2ccccc2[nH]1`, the Kd was > 4 mM (inactive).

With `Nc1cccc2cccnc12` the Kd was > 4 mM (inactive).

`CC1=C(C(N)=O)C(c2ccco2)C(C(N)=O)=C(C)N1` was tested, and the Kd was > 4 mM (inactive).

`NC1=NC(=O)/C(=C\c2cccc(C(=O)O)c2)S1` was tested, and the Kd was > 4 mM (inactive).

With `Cc1n[nH]c(=O)nc1N1CCN(c2ccccc2)CC1` the Kd was > 4 mM (inactive).

In the case of `CCOc1ccc(C(=O)c2ccncc2)cc1`, the Kd is reported as > 4 mM (inactive).

In the case of `CC(C)=CCc1c2c(c3occ(-c4ccc(O)cc4)c(=O)c3c1O)C=CC(C)(C)O2`, the Kd is reported as > 4 mM (inactive).

In the case of `NC(=O)CSc1nnc(-c2ccncc2)o1`, the Kd is reported as > 4 mM (inactive).

For `COC(=O)CC1=Nc2ccccc2NC(=O)C1`, the Kd was > 4 mM (inactive).

In the case of `O=c1c(-c2cccs2)[n+]([O-])c2ccccc2n1O`, the Kd is reported as > 4 mM (inactive).

`COC(=O)[C@H]1[C@H]2C[C@H]3c4[nH]c5ccccc5c4CCN3C[C@H]2CC[C@@H]1O` was tested, and the Kd was > 4 mM (inactive).

For `CN1C(=O)CC(=O)N(C)c2ccccc21`, the Kd was > 4 mM (inactive).

In the case of `CNC(=S)Nc1ccc(OC)cc1C`, the Kd is reported as > 4 mM (inactive).

For `COC(=O)c1cnccc1C(F)(F)F`, the Kd was > 4 mM (inactive).

In the case of `c1ccc2nc3c(nc2c1)CCc1nonc1-3`, the Kd is reported as > 4 mM (inactive).

In the case of `N[C@@H](CCC(=O)N[C@@H](CS)C(=O)NCC(=O)O)C(=O)O`, the Kd is reported as > 4 mM (inactive).

For `NCCc1cnc[nH]1`, the Kd was > 4 mM (inactive).

For `Cc1nnc(NCc2ccc3c(c2)OCO3)[nH]c1=O`, the Kd was > 4 mM (inactive).

For `c1ccc(C2NCCc3[nH]cnc32)cc1` (stereo unspecified), the Kd was > 4 mM (inactive).

For `COC(=O)c1cn(C(=O)OC)c2ccccc12`, the Kd was > 4 mM (inactive).

With `COCCn1c(C)cc(O)cc1=O` the Kd was > 4 mM (inactive).

In the case of `CC(C)=CCOc1cc2oc(=O)ccc2cc1O`, the Kd is reported as > 4 mM (inactive).

With `O=C(O)/C=C(\CC(=O)O)C(=O)O` the Kd was > 4 mM (inactive).

With `Cc1ccccc1NC(=S)NCCO` the Kd was > 4 mM (inactive).

For `CCOC(=O)c1csc(N)n1`, the Kd was > 4 mM (inactive).

`CC(C)(C)NC(=O)CN1C(=O)c2ccccc2S1(=O)=O` was tested, and the Kd was > 4 mM (inactive).

For `O=C(Cn1cnc2ccccc2c1=O)N1CCOCC1`, the Kd was > 4 mM (inactive).

In the case of `Cc1oc(-c2ccccc2)nc1CCO`, the Kd is reported as > 4 mM (inactive).

For `CNC(Cc1c[nH]c2ccccc12)C(=O)O` (stereo unspecified), the Kd was > 4 mM (inactive).

For `COc1ccc(CC(=O)c2ccc(O)cc2O)cc1`, the Kd was > 4 mM (inactive).

With `O=C(Nc1cccnc1)Nc1ccc2c(c1)OCO2` the Kd was > 4 mM (inactive).

In the case of `O=C(O)CCS(=O)(=O)c1ccccc1`, the Kd is reported as > 4 mM (inactive).

In the case of `O=C(c1ccc(F)cc1)N1CCOCC1`, the Kd is reported as > 4 mM (inactive).

For `CC(=O)Nc1ccc(CN2CCOCC2)cc1`, the Kd was > 4 mM (inactive).

`Nc1cc(C(=O)O)ccc1N1CCCCCC1` was tested, and the Kd was > 4 mM (inactive).

`O=C(O)c1ccc(NCc2cccnc2)cc1` was tested, and the Kd was > 4 mM (inactive).

With `Cc1cc(C)n2nc(SCC(=O)c3ccccc3)nc2n1` the Kd was > 4 mM (inactive).

`O=[n+]1cc(-c2ccccc2)n([O-])c2c1CCC2` was tested, and the Kd was > 4 mM (inactive).

For `O=c1[nH]c(=O)n(-c2ccc(F)cc2)c(O)c1/C=C1/C=CC=N1`, the Kd was > 4 mM (inactive).

In the case of `O=C1NC(=O)/C(=C\c2ccncc2)S1`, the Kd is reported as > 4 mM (inactive).

With `CC(=O)OC1CCC2(C)C3CC(=O)C4(C)C(CC5OC6(CCC(C)CO6)[C@@H](C)C54)C3CC[C@H]2C1` (stereo partly specified) the Kd was > 4 mM (inactive).

For `COc1ccc(S(N)(=O)=O)cc1`, the Kd was > 4 mM (inactive).

`CC(=O)n1nc(-c2cccnc2)nc1N` was tested, and the Kd was > 4 mM (inactive).

For `COC(=O)c1ccc(N2CCCC2)nc1`, the Kd was > 4 mM (inactive).

For `CC(=O)NC(C)(C)C1CC=C(C)/C(=N\O)C1` (stereo unspecified), the Kd was > 4 mM (inactive).

In the case of `Cc1nn(C)c2sc(C(=O)O)cc12`, the Kd is reported as > 4 mM (inactive).

`NC1=NC(=O)C(Cc2cccc([N+](=O)[O-])c2)S1` (stereo unspecified) was tested, and the Kd was > 4 mM (inactive).

With `CCc1c(C)n([O-])c2c([n+]1=O)CCC2` the Kd was > 4 mM (inactive).

In the case of `C=CCc1ccc(OC(=O)c2ccccc2)c(OC)c1`, the Kd is reported as > 4 mM (inactive).

For `CCc1c(C)[nH]c(=S)c(C(N)=O)c1C`, the Kd was > 4 mM (inactive).

With `Cc1cc2c(nn1)CCc1nonc1-2` the Kd was > 4 mM (inactive).

With `O=C(c1ccccc1)c1cncc(Br)c1` the Kd was > 4 mM (inactive).

For `COc1ccc(-c2nc(C)sc2CC(=O)O)cc1`, the Kd was > 4 mM (inactive).
